Data from patent US10688093B2, “Methods, compositions, and uses of novel Fyn kinase inhibitors” (priority 2015, dated 2020).

Target: full-length recombinant human FYN A (Homo sapiens (Human), UniProt P06241)
Experiment: ADP-Glo Kinase Assay of FYN kinase inhibition
Format: biochemical
Conditions: primary screen, initial compounds
Excerpt: The chemical library was comprised of the SoftFocus ATP-competitive hinge binding compounds described by Harris, C. J., Hill, R. D., Sheppard, D. W., et al., The Design and Application of Target-Focused Compound Libraries. Combinatorial Chemistry and High Throughput Screening 14:521-31 (2011). The specific pharmacore chemistries included SFK52 comprising 6-[R2]-3-[R1]imidazo[1,2-b] pyridazine compounds, SFK33 comprising N-(3-[R2] imidazo [1,2-b] pyridazin-6-yl) [R1] amine compounds, SFK49 comprising N-(5-[R2] imidazo [2,1-b][1,3,4] thiadiazol-2-yl)[R1]-amine compounds, SFK 40 comprising 5-[R2]-3-[R1] pyridin-2-amine compounds, SFK43 comprising 6-[R2]-3-[R1]imidazo[1,2-a]pyrazine compounds, and SFK63. The chemical structures of the initial 600 potential kinase inhibitors are presented in Table 3, with those chosen for additional analysis presented in Table 4. Comparison of the compounds presented in Table 1 and those of Tables 2, 3 and 4, illustrate the novelty of the chemical structures claimed herein.
FYN kinase (10 micrograms) was from the FYN A Kinase Enzyme System (V3571, Promega UK Ltd.), a full-length recombinant human FYN A containing an N-terminal GST tag of about 85 kDa, expressed by bacullovirus in […] insect cells, supplied at a concentration of 0.1 microgram/microliter in 5×reaction buffer. The FYN substrate, a 12 amino acid peptide of the sequence […], containing a single tyrosine phosphorylation site, was custom synthesized (Peptide Synthetics, Peptide Protein Research, Fareham, UK) and supplied as a 4 mg/ml aqueous solution. All other reagents were obtained from Sigma (Sigma-Aldrich, Gillingham, Dorset, UK), with the exception of UltraPure ATP (V9102, Promega UK Ltd.) and the ATP-competitive broad spectrum protein kinase inhibitor staurosporine (569397, Merck Millipore, Watford, Hertfordshire, UK), or as otherwise indicated.
The assay procedure determines the IC50 of each potential FYN kinase inhibitor by measuring the enzyme catalyzed ATP-dependent phosphorylation of the FYN substrate peptide. The ADP-Glo™ Kinase Assay is specifically designed to quantify kinase activity by measuring the ADP produced in the reaction The reaction buffer comprises 40 mM Tris.HCl (pH 7.5), 20 mM MgCl2, 0.1 mg/ml BSA and 5 microM DTT. Individual compounds within the chemical library were dissolved in DMSO at known concentrations. Briefly, 2.5 microliters of reaction buffer containing 3 picograms of FYN kinase and serial dilutions of each potential FYN kinase inhibitor (9 3-fold dilutions of a 10 micromolar top sample) are placed into each well of a 384 well microtiter plate and incubated at room temperature for 30 minutes. An additional 2.5 microliters of reaction buffer containing 100 picograms of the FYN substrate and 12.5 picomoles of ATP are then added to each well and the reaction carried out for 90 minutes at room temperature. The reactions are terminated by addition of 5 microliters of the ADP-Glo™ Reagent component of the ADP-Glo™ Kinase Assay kit to each well. The ADP-Glo™ Reagent comprises an ATP-dependent adenylate cyclase, an inorganic pyrophosphatase and an excess of staurosporine. The adenylate cyclase converts the remaining ATP to cAMP and pyrophospahte, the pyrophosphatase converts the pyrophosphate to phosphate and the staurosporine inhibits the activity of the FYN kinase, the net effect is to remove all residual ATP while preserving the ADP produced by FYN kinase. The terminated reactions are incubated for 40 minutes at room temperature, prior to addition of the Kinase Detection Reagent component of the ADP-Glo™ Kinase Assay kit to each well. The Kinase Detection Reagent comprises pyruvate kinase, phosphoenol pyruvate (PEP), luciferin and luciferase. The pyruvate kinase converts PEP to pyruvate and in the process generates ATP from the residual ADP present in the terminated reaction. […]

full-length recombinant human FYN A, sequence (P06241 whole entry): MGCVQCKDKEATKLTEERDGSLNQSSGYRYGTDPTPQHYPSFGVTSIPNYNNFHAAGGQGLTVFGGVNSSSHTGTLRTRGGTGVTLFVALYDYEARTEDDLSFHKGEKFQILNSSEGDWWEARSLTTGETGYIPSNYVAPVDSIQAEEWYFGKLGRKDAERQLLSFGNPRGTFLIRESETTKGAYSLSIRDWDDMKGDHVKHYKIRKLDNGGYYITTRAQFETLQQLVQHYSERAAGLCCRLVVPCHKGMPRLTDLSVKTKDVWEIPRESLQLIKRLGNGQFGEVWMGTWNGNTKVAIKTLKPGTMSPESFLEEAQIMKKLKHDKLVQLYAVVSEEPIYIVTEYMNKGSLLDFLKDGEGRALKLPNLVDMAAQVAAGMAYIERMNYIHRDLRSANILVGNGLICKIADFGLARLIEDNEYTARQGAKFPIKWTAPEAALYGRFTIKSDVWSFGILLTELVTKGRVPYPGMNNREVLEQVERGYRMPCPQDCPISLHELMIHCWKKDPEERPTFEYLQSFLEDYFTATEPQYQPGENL

| SMILES | IC50 |
| --- | --- |
| OCc1ccc(-c2cnc3ccc(NCc4ccc(F)cc4)nn23)cc1 [229_0224_0285, [4-[6-[(4-fluorophenyl)methylamino]imidazo[1,2-b]pyridazin-3-yl]phenyl] methanol] | 2440 nM |
| CCCNc1ccc2ncc(-c3cccc(N)c3)n2n1 [229_0226_0005, 3-(3-aminophenyl)-N-propyl-imidazo[1,2-b]pyridazin-6-amine] | 932 nM |
| CCCNc1ccc2ncc(-c3ccsc3)n2n1 [229_0226_0074, N-propyl-3-(3-thienyl)imidazo [1,2-b]pyridazin-6-amine] | 4040 nM |
| CCCNc1ccc2ncc(-c3cccc(OC)c3)n2n1 [229_0226_4140, 3-(3-methoxyphenyl)-N-propyl-imidazo[1,2-b]pyridazin-6-amine] | 2220 nM |
| CCCNc1ccc2ncc(-c3cccc(C(C)=O)c3)n2n1 [229_0226_4145, 1-[3-[6-(propylamino)imidazo[1,2-b]pyridazin-3-yl]phenyl] ethanone] | 367 nM |
| O=C(O)c1ccc(-c2cnc3ccc(NCc4ccc(Cl)c(Cl)c4)nn23)cc1 [229_0227_0140, 4-[6-[(3,4-dichlorophenyl)methylamino]imidazo[1,2-b]pyridazin-3-yl]benzoic acid] | 1010 nM |
| c1cc(-c2cnc3ccc(NCc4ccc5c(c4)OCO5)nn23)ccn1 [229_0236_0069, N-(1,3-benzodioxol-5-ylmethyl)-3-(4-pyridyl)imidazo [1,2-b]pyridazin-6-amine] | 380 nM |
| Oc1ccc(-c2cnc3ccc(NCc4ccc5c(c4)OCO5)nn23)cc1 [229_0236_0080, 4-[6-(1,3-benzodioxol-5-ylmethyl-amino)imidazo[1,2-b]pyridazin-3-yl]phenol] | 5670 nM |
| CC(=O)Nc1cccc(-c2cnc3ccc(NC4CCOCC4)nn23)c1 [229_0242_0081, N-[3-[6-(tetrahydro-pyran-4-ylamino)imidazo[1,2-b]pyridazin-3-yl]phenyl] acetamide] | 588 nM |
| COc1cc(-c2cnc3ccc(NC4CCOCC4)nn23)cc(OC)c1OC [229_0242_0087, N-tetrahydropyran-4-yl-3-(3,4,5-trimethoxy-phenyl) imidazo[1,2-b]pyridazin-6-amine] | 617 nM |
| COc1cccc(-c2cnc3ccc(NC4CCOCC4)nn23)c1 [229_0242_4140, 3-(3-methoxy-phenyl)-N-tetrahydro-pyran-4-yl-imidazo[l,2-b]pyridazin-6-amine] | 870 nM |
| COc1ccc(CNc2ccc3ncc(-c4ccc(O)c(OC)c4)n3n2)cc1 [229_0244_0314, 2-methoxy-4-[6-[(4-methoxyphenyl)methylamino]imidazo[1,2-b]pyridazin-3-yl]phenol] | 4010 nM |
| OCCCNc1ccc2ncc(-c3cccc(C(F)(F)F)c3)n2n1 [229_0248_0312, 3-[[3-[3-(trifluoro-methyl)phenyl]imidazo[1,2-b]pyridazin-6-yl]amino] propan-1-ol] | 3410 nM |
| COc1cc(-c2cnc3ccc(NCCCO)nn23)ccc1O [229_0248_0314, 4-[6-(3-hydroxy-propylamino)imidazo[1,2-b]pyridazin-3-yl]-2-methoxy-phenol] | 329 nM |
| OCCCNc1ccc2ncc(-c3ccc(Oc4ccccc4)cc3)n2n1 [229_0248_1029, 3-[[3-(4-phenoxyphenyl)imidazo[1,2-b]pyridazin-6-yl]amino] propan-1-ol] | 5540 nM |
| CC(C)[C@@H](CO)Nc1ccc2ncc(-c3cccc(N)c3)n2n1 [229_0254_0005, (2S)-2-[[3-(3-aminophenyl)imidazo[1,2-b]pyridazin-6-yl]amino]-3-methyl-butan-1-ol] | 1810 nM |
| COc1ccc(-c2cnc3ccc(N[C@H](CO)C(C)C)nn23)cc1OC [229_0254_0079, (2S)-2-[[3-(3,4-dimethoxyphenyl)imidazo[1,2-b]pyridazin-6-yl]amino]-3-methyl-butan-1-ol] | 778 nM |

Other lines, results leading:

| IC50 | SMILES |
| --- | --- |
| 8340 nM | COc1ccc(-c2cnc3ccc(NCc4cccc(Cl)c4)nn23)cn1 [229_0223_0311, N-[(3-chlorophenyl)methyl]-3-(6-methoxy-3-pyridyl)imidazo [1,2-b]pyridazin-6-amine] |
| 3520 nM | COc1cc(-c2cnc3ccc(NCc4cccc(Cl)c4)nn23)ccc1O [229_0223_0314, 4-[6-[(3-chlorophenyl)methylamino]imidazo[1,2-b]pyridazin-3-yl]-2-methoxy-phenol] |
| 3410 nM | Nc1ccc(-c2cnc3ccc(NCc4cccc(Cl)c4)nn23)cc1 [229_0223_0333, 3-(4-aminophenyl)-N-[(3-chlorophenyl)methyl]imidazo [1,2-b]pyridazin-6-amine] |
| 2050 nM | CCCNc1ccc2ncc(-c3ccc4c(c3)OCO4)n2n1 [229_0226_0068, 3-(1,3-benzodioxol-5-yl)-N-propyl-imidazo[1,2-b]pyridazin-6-amine] |
| 519 nM | CCCNc1ccc2ncc(-c3ccc(OC)c(OC)c3)n2n1 [229_0226_0079, 3-(3,4-dimethoxy-phenyl)-N-propyl-imidazo[1,2-b]pyridazin-6-amine] |
| 629 nM | CCCNc1ccc2ncc(-c3cccc(NC(C)=O)c3)n2n1 [229_0226_0081, N-[3-[6-(propylamino)imidazo[1,2-b]pyridazin-3-yl]phenyl] acetamide] |
| 9770 nM | CCCNc1ccc2ncc(-c3ccc(C(=O)O)cc3)n2n1 [229_0226_0140, 4-[6-(propylamino)imidazo[1,2-b]pyridazin-3-yl]benzoic acid] |
| 5430 nM | CCCNc1ccc2ncc(-c3ccc(OC)cc3)n2n1 [229_0226_0280, 3-(4-methoxyphenyl)-N-propyl-imidazo[1,2-b]pyridazin-6-amine] |
| 930 nM | CCCNc1ccc2ncc(-c3cccc(O)c3)n2n1 [229_0226_0284, 3-[6-(propylamino)imidazo[1,2-b]pyridazin-3-yl]phenol] |
| 4060 nM | c1ccc(-c2cnc3ccc(NCc4ccncc4)nn23)cc1 [229_0237_0061, 3-phenyl-N-(4-pyridylmethyl) imidazo[1,2-b]pyridazin-6-amine] |
| 6450 nM | c1ccc2oc(-c3cnc4ccc(NCc5ccncc5)nn34)cc2c1 [229_0237_0073, 3-(benzofuran-2-yl)-N-(4-pyridylmethyl) imidazo[1,2-b]pyridazin-6-amine] |
| 746 nM | Nc1cccc(-c2cnc3ccc(NC4CCOCC4)nn23)c1 [229_0242_0005, 3-(3-aminophenyl)-N-tetrahydro-pyran-4-yl-imidazo[1,2-b]pyridazin-6-amine] |
| 547 nM | COc1ccc(-c2cnc3ccc(NC4CCOCC4)nn23)cc1OC [229_0242_0079, 3-(3,4-dimethoxy-phenyl)-N-tetra-hydropyran-4-yl-imidazo[1,2-b]pyridazin-6-amine] |
| 1170 nM | c1cc2cc(-c3cnc4ccc(NC5CCOCC5)nn34)ccc2[nH]1 [229_0242_0204, 3-(1H-indol-5-yl)-N-tetrahydropyran-4-yl-imidazo[1,2-b]pyridazin-6-amine] |
| 3130 nM | Nc1ccc(-c2cnc3ccc(NC4CCOCC4)nn23)cc1 [229_0242_0333, 3-(4-aminophenyl)-N-tetrahydropyran-4-yl-imidazo[1,2-b]pyridazin-6-amine] |
| 929 nM | OCCCNc1ccc2ncc(-c3ccc4c(c3)OCO4)n2n1 [229_0248_0068, 3-[[3-(1,3-benzodioxol-5-yl)imidazo[1,2-b]pyridazin-6-yl]amino] propan-1-ol] |
| 2720 nM | OCCCNc1ccc2ncc(-c3ccc4[nH]ccc4c3)n2n1 [229_0248_0204, 3-[[3-(1H-indol-5-yl)imidazo[1,2-b]pyridazin-6-yl]amino] propan-1-ol] |
| 1820 nM | CC(C)[C@@H](CO)Nc1ccc2ncc(-c3ccc4c(c3)OCO4)n2n1 [229_0254_0068, (2S)-2-[[3-(1,3-benzodioxol-5-yl)imidazo[1,2-b]pyridazin-6-yl]amino]-3-methyl-butan-1-ol] |
